# Patent US7323620B2, “Activation of equine oocytes” (Idaho Research Foundation, Inc., priority 2002, dated 2008)
# Key:
# [1] = tested on: equine oocytes; test: Nuclear transfer with activation of oocytes in calcium chloride/ionomycin activation medium, embryo transfer and pregnancy detection by transrectal ultrasonography (cloned mule embryos); format: in vivo, mule (donor cells); recipient mare Equus caballus
# Protocol: A primary culture of fibroblast cells was established from a 45-day mule fetus recovered from a domestic horse mare using transcervical uterine lavage. Culture medium was Glasgow MEM BHK-21 supplemented with 10% FBS, 100 units/ml penicillin, and 100 μg/ml streptomycin. Incubation was performed at 38.5° C. in a humidified atmosphere of 5% CO2 in air. Prior to the nuclear transfer procedure, the fibroblast cells were serum “starved” for 5 to 10 days by placing them into medium with 0.5% FBS.
# Mares that were used as oocyte donors and as cloned-embryo recipients were of mixed breeding, 3 to 12 years old, and weighed 300 to 500 kg. The reproductive tracts of the mares were monitored by transrectal palpation and ultrasonography to assess follicular activity, ovulation, and the presence and degree of endometrial edema.
# Oocytes were collected by one of three methods.
# 1. Recent (≦12 hours) post-ovulatory oocytes (n=12) were collected by surgically excising the oviduct ipsilateral to ovulation and then flushing the oviduct in a retrograde manner with modified DPBS.
# 2. Pre-ovulatory oocytes (n=3) were collected by surgically excising ovaries containing a pre-ovulatory follicle (≧35 mm) approximately 30 hours after administration of 2500 IU hCG and then manually aspirating the follicle.
# 3. Pre-ovulatory oocytes (n=180) were collected using transvaginal aspiration (TVA) of pre-ovulatory follicles approximately 24 hours after administration of 2500 IU hCG.
# Oocytes collected post-ovulation were incubated for up to 6 hours in maturation medium (M-199) containing 10% FBS, 0.05 units/ml pFSH, 0.05 units/ml pLH, 10 units/ml penicillin and 10 μg/ml streptomycin. Oocytes collected pre-ovulation were incubated in maturation medium for approximately 12 hours.
# Cumulus-free metaphase II oocytes and starved donor cells were placed in a manipulation drop of TL HEPES containing 7.5 μg of cytochalasin B. The first polar body and metaphase plate of the oocytes were drawn into a 25-28 ID enucleation pipette. The same pipette was used to aspirate a disaggregated donor cell nucleus and place it in the perivitelline space of an oocyte to obtain an NT couple. Fusion of NT couples was induced by a single 15 μsec, 2.2 kv/cm DC pulse in a 3.5 mm fusion chamber. Fusion medium was […] D-mannitol containing 0.5 mM HEPES and 0.05% fatty acid-free BSA. Fused NT couples were activated by placing them in an activation medium containing calcium chloride and ionomycin for 8 minutes. Three different concentrations of calcium chloride were used in the activation medium: 2 mM (n=133 oocytes), 6 mM (n=40 oocytes), and 20 mM (n=22 oocytes).
# Immediately following nuclear transfer and activation, the oocytes, hereafter referred to as embryos, were surgically transferred to the oviduct of a recipient mare (Equus caballus) that had ovulated within 24 hours prior to the transfer. One to nine embryos were transferred to each mare. Pregnancy examinations on the recipient mare were performed using transrectal ultrasonography beginning on Day 12 post-transfer.
# [2] = tested on: Oocytes from mules; test: Additional data in mules: calcium concentration in activation medium and peripheral media, pregnancies after nuclear transfer; format: in vivo, mule
# Text: The procedures of the above examples were repeated in order to compare results obtained with different concentrations of calcium in the activation medium and in peripheral media, that is media other than the activation medium. Oocytes from mules were placed into one of four groups as follows: In Groups 1 to 3, media was as described above in Examples 1 to 5, except for calcium concentration, which is as described below. In Group 4, media was HECM media.
# Tissue Culture Medium (TCM)—199 with Earl's salts • 1.4 mM CaCl2 (1×) • 10% Fetal Bovine Serum (FBS) • 0.05 units FSH • 0.05 units LH • 100 units penicillin • 100 micrograms streptomycin Manipulation Medium:
# PB1 (Whittingham, D G, J. Reprod. Fert., 37(1):159-162 (1974) • Dulbecco's phosphate buffered saline • 1.4 mM CaCl2 (1×) • 0.5 mM MgCl2 • 0.33 mM Na-pyruvate • 5.56 mM Glucose • 3 mg/ml Bovine Serum Albumin (BSA)—fraction 5 • 100 units penicillin • 10 micrograms streptomycin Transfer Medium
# PB1 (as in Manipulation Medium) except 0.7 mM CaCl2 (1×)
# (§1) Holding/Activation/Culture Medium for Group 4 in Example 9 and in horses in Example 10 • HECM (Ball et al., Amer. J. Vet. Res., 54(7):1139-44 (1993) • Ham's F-12+Dulbecco's […] (DMEM)—(50:50, v:v) • 0.71 mM CaCl2 (1×) • 29 mM NaHCO3 • 5 micrograms/ml insulin • 5 micrograms/ml transferrin • 5 ng/ml Na-selenite • 10 ng/ml EGF • 50 IU penicillin • 50 micrograms streptomycin
# [3] = tested on: horse oocytes; test: Data in horses: protocol of Group 4 of Example 9 repeated with horse oocytes; format: in vivo
# Protocol: The protocol of Group 4 of Example 9 was repeated with […] horse oocytes. Of these, pregnancy was detected at two weeks in 6 mares, […]. Of these 6, 3 pregnancies were detected at 30 days and 1 was detected at 45 days.
# as §1
# [4] = 2 mM calcium in activation medium
# [5] = 6 mM calcium in activation medium
# [6] = 20 mM calcium in activation medium
# [7] = Group 4 (6x Ca activation, 3x peripheral media)
# [8] = Group 4 protocol (6x Ca activation, 3x peripheral media), 59 horse oocytes
# [9] = Group 4 protocol, of 6 two-week pregnancies
smiles,measurement,setting,value
[Ca+2].[Cl-].[Cl-] [calcium chloride],Pregnancy Rate,[1]; [4],(1.5%)
same,Pregnancy Rate (pregnancies/oocytes),[1]; [4],2/133
same,Pregnancy Rate,[1]; [5],(7.5%)
same,Pregnancy Rate (pregnancies/oocytes),[1]; [5],3/40
same,Ultrasonography of cloned mule conceptus,"[1]; 6 mM calcium in activation medium, Day 32 of gestation",an embryonic heart was evident
same,Pregnancy Rate,[1]; [6],(9.1%)
same,Pregnancy Rate (pregnancies/oocytes),[1]; [6],2/22
same,"Pregnancies, higher versus lower calcium","[1]; 6 and 20 mM combined compared to 2 mM in activation medium, P<0.05",more pregnancies
same,Two-week pregnancies detectable at 30 days,"[2]; Group 1 (1x Ca all media), of 2 two-week pregnancies",neither
same,PREGNANCIES (2 weeks),[2]; Group 1: 1x Ca (about 2 mM) all media,(1.7%)
same,"PREGNANCIES (2 weeks), number","[2]; Group 1: 1x Ca (about 2 mM) all media, 115 oocytes",2
same,Two-week pregnancies detectable at 30 days,"[2]; Group 2 (3x Ca activation medium), of 3 two-week pregnancies",2
same,PREGNANCIES (2 weeks),"[2]; Group 2: 3x Ca (about 6 mM) in activation media, 1x Ca all other media",(7.5%)
same,"PREGNANCIES (2 weeks), number","[2]; Group 2: 3x Ca (about 6 mM) in activation media, 1x Ca all other media, 40 oocytes",3
same,PREGNANCIES (2 weeks),"[2]; Group 3: 10x Ca (about 20 mM) in activation media, 1x Ca all other media",(9.09%)
same,"PREGNANCIES (2 weeks), number","[2]; Group 3: 10x Ca (about 20 mM) in activation media, 1x Ca all other media, 22 oocytes",2
same,Pregnancies detectable at 45 days,[2]; [7],Five
same,Pregnancies detectable at 120 days,[2]; [7],3
same,Two-week pregnancies detectable at 30 days,"[2]; Group 4 (6x Ca activation, 3x peripheral media), of 12 two-week pregnancies",9
same,PREGNANCIES (2 weeks),"[2]; Group 4: 6x Ca (about 12 mM) in activation media, 3x Ca all other media, HECM media",(14.4%)
same,"PREGNANCIES (2 weeks), number","[2]; Group 4: 6x Ca (about 12 mM) in activation media, 3x Ca all other media, HECM media, 132 oocytes",19
same,Pregnancy detected at two weeks,[3]; [8],4.4%
same,"Pregnancy detected at two weeks, number of mares",[3]; [8],6
same,Pregnancies detected at 30 days,[3]; [9],3
same,Pregnancies detected at 45 days,[3]; [9],1
